Biological target: full-length FhlA (Escherichia coli, UniProt P19323)
Type: binding
Settings: 32 uM protein; 10 mM Tris pH 8, 100 mM NaCl, 5 mM MgCl2, on ice; labelled compound

Chain of full-length FhlA (P19323 whole entry): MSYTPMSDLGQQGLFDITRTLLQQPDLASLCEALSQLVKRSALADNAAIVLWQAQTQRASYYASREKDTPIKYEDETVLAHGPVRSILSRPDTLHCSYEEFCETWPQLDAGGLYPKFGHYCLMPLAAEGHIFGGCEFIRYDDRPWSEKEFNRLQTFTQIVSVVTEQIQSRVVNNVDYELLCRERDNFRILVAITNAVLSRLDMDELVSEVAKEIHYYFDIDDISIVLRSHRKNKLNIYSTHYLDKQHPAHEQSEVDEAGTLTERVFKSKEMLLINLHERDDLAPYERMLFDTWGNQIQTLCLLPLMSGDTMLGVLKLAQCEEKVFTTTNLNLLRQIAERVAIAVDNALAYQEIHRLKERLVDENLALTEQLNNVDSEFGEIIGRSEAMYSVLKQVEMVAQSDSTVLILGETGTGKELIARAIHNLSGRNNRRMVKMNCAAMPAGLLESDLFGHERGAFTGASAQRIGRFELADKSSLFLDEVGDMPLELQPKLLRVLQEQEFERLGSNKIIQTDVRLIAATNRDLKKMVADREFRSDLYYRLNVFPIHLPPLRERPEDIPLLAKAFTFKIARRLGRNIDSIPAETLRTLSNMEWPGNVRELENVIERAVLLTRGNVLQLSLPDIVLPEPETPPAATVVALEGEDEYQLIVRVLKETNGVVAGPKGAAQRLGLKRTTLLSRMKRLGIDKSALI

Structure (SMILES): O=CO [formate]
- 14C-formate DRaCALA: DRaCALA with full-length purified FhlA, and full-length E183K and E363K derivatives produced similar pattern
